Assay results: the supplement of paper PMC5908809

Experiments:
Experiment in all cases: relative IC50 (inflection point of fitted viability curve, relative to fitted max inhibition); higher = less sensitive
Conditions in all cases: 72 h
[1] = system: normal primary NK cells, pool 3 (3 donors) (IL-2 2.5 ng/mL)
Procedure: (§1)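 Drug sensitivity and resistance testing: 5 concentrations over a 10,000-fold range, 72 h at 37 °C, viability by CellTiter-Glo normalised to DMSO and benzethonium chloride controls. IC50 is the inflection point of a logistic fit (min fixed at 0, max fitted), so it is relative to the fitted maximal inhibition. Kept only where fitted max inhibition is at least 50%.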

DERL-7 (IL-2 2.5 ng/mL) = system: DERL-7 (IL-2 2.5 ng/mL)
Procedure: as §1

IMC-1 (IL-2 20 ng/mL) = system: IMC-1 (IL-2 20 ng/mL)
Procedure: as §1

KAI3 (IL-2 2.5 ng/mL) = system: KAI3 (IL-2 2.5 ng/mL)
Procedure: as §1

KHYG-1 (IL-2 2.5 ng/mL) = system: KHYG-1 (IL-2 2.5 ng/mL)
Procedure: as §1

NK-92 (IL-2 2.5 ng/mL) = system: NK-92 (IL-2 2.5 ng/mL)
Procedure: as §1

NK-YS (IL-2 2.5 ng/mL) = system: NK-YS (IL-2 2.5 ng/mL)
Procedure: as §1

NKL (IL-2 2.5 ng/mL) = system: NKL (IL-2 2.5 ng/mL)
Procedure: as §1

SNK-6 (IL-2 2.5 ng/mL) = system: SNK-6 (IL-2 2.5 ng/mL)
Procedure: as §1

YT (IL-2 2.5 ng/mL) = system: YT (IL-2 2.5 ng/mL)
Procedure: as §1

[2] = system: normal primary NK cells, pool 1 (3 donors) (IL-2 2.5 ng/mL)
Procedure: as §1

[3] = system: normal primary NK cells, pool 1 (3 donors), resting (IL-2 0 ng/mL)
Procedure: as §1

[4] = system: normal primary NK cells, pool 2 (3 donors) (IL-2 2.5 ng/mL)
Procedure: as §1

Structure (SMILES)	relative IC50 [1] [nM]	relative IC50 (DERL-7 (IL-2 2.5 ng/mL)) [nM]	relative IC50 (IMC-1 (IL-2 20 ng/mL)) [nM]	relative IC50 (KAI3 (IL-2 2.5 ng/mL)) [nM]	relative IC50 (KHYG-1 (IL-2 2.5 ng/mL)) [nM]	relative IC50 (NK-92 (IL-2 2.5 ng/mL)) [nM]	relative IC50 (NK-YS (IL-2 2.5 ng/mL)) [nM]	relative IC50 (NKL (IL-2 2.5 ng/mL)) [nM]	relative IC50 (SNK-6 (IL-2 2.5 ng/mL)) [nM]	relative IC50 (YT (IL-2 2.5 ng/mL)) [nM]	relative IC50 [2] [nM]	relative IC50 [3] [nM]	relative IC50 [4] [nM]
COc1cc2c(Oc3ccc4[nH]c(C)cc4c3F)ncnc2cc1OCCCN1CCCC1 [Cediranib]	> 1000												
O=C(/C=C/c1cccc(S(=O)(=O)Nc2ccccc2)c1)NO [Belinostat]	200	161	173	82.5	128	81.7	182	152	156	213	113	83.9	143
COc1cc(OC2CCN(C)CC2)ccc1Nc1ncc2c(n1)n(C1CCCC1)c(=O)n2C [AZ 3146]	2660	2330	2400	1580	2060	3770	1720	2070	1870	2020	3160	2250	2410
COc1c(C)cnc(Cn2cnc3c(Cl)nc(N)nc32)c1C [BIIB021]	254	68.4	150	54.3	61.8	97.5	79.6	95.7	33.9	98.2	181	226	104
COc1cc2c(NC3CCN(C(C)C)CC3)nc(N3CCC(F)(F)CC3)nc2cc1OCCCN1CCCC1 [UNC0642]	3450	3160	2450	987			2440	1640	1530	2690	1810	1560	3390
C[C@]12CC[C@@H]3c4ccc(OC(=O)N(CCCl)CCCl)cc4CC[C@H]3[C@@H]1CC[C@@H]2O [Estramustine]	> 10000		> 10000										
COCC(=O)NC/C=C/c1ccc2ncnc(Nc3ccc(Oc4ccc(C)nc4)c(C)c3)c2c1			2920	1870		1470		2070	3270			834	
CC(=O)Nc1cccc(-n2c(=O)n(C3CC3)c(=O)c3c(Nc4ccc(I)cc4F)n(C)c(=O)c(C)c32)c1 [Trametinib]	> 250		> 250		4.89	> 250		2.51					
CS(=O)(=O)OCCCCOS(C)(=O)=O [Busulfan]			26900	24600	26600	36400	29600	27300	15800				35600
CC[C@@H]1C(=O)N(C)c2cnc(Nc3ccc(C(=O)NC4CCN(C)CC4)cc3OC)nc2N1C1CCCC1 [BI 2536]		8.62	14.8	8.37	22.1	11.4	13.5	9.81	4.57	26.3			218
Cc1sc2c(c1C)C(c1ccc(Cl)cc1)=N[C@@H](CC(=O)OC(C)(C)C)c1nnc(C)n1-2 [(+)JQ1]		76.9		362	165		231	113	215	238	546	1080	
C[C@]1(c2nc3c(C(N)=O)cccc3[nH]2)CCCN1 [Veliparib]											2020	3590	
O=P1(N(CCCl)CCCl)NCCCO1 (stereo not given) [Cyclophosphamide]			> 40000		> 40000					> 40000		5790	
CC(C)[C@H]1C(=O)N[C@@H](CCCNC(=N)N)C(=O)NCC(=O)N[C@@H](CC(=O)O)C(=O)N[C@H](Cc2ccccc2)C(=O)N1C [Cilengitide]	> 10000		> 10000		> 10000	> 10000		> 10000		> 10000	> 10000	> 10000	> 10000
Cc1cc(C)c(CNC(=O)c2cc(-c3ccc(CN4CCOCC4)cc3)cc3c2cnn3C2CCCC2)c(=O)[nH]1 [EPZ-5687]	> 10000		> 10000			> 10000		> 10000					> 10000
COc1cc2/c(=N/c3ccc(Br)cc3F)nc[nH]c2cc1OCC1CCN(C)CC1 [Vandetanib]	> 1000												
O=C1CN2Cc3c(ccc(Cl)c3Cl)N=C2N1 [Anagrelide]	> 10000												
COc1cc2nccc(Oc3ccc(NC(=O)Nc4cc(C)on4)c(Cl)c3)c2cc1OC [Tivozanib]		2780			1630	319	1750		799	1490		1520	
C[C@@H]1CCN(C(=O)CC#N)C[C@@H]1N(C)c1ncnc2[nH]ccc12 [Tofacitinib]	204	99.5	616	42.3	41	141	101	33.1	78	336	75		95.5
NC(=O)N1CCC(CC(=O)N2CCC([C@H]3c4ncc(Br)cc4CCc4cc(Cl)cc(Br)c43)CC2)CC1 [Lonafarnib]	1860	708			492	718	450			1060	1660	693	1580
CN(C)CCOc1ccc(/C(=C(/CCCl)c2ccccc2)c2ccccc2)cc1 [Toremifene]		1090		2030		2190					3740	2370	
Cc1cnc(Nc2ccc(OCCN3CCCC3)cc2)nc1Nc1cccc(S(=O)(=O)NC(C)(C)C)c1 [Fedratinib]	479		929										462
Cc1ccccc1C(C(=O)NC1CCCCC1)N(C(=O)Cn1ccnc1C)c1cccc(F)c1 (stereo not given) [AGI-5198]											> 10000		
CCN1CCN(Cc2ccc(Nc3ncc(F)c(-c4cc(F)c5nc(C)n(C(C)C)c5c4)n3)nc2)CC1 [Abemaciclib]		130	978		236		446					> 2500	743
COc1ccc(CCc2nc3cc(-c4c(C)noc4C)ccc3n2C[C@H](C)N2CCOCC2)cc1Cl [SGC-CBP30]	5310	1490		10100	4750	10200	3300	1570		5050	3540	4340	3830
N#Cc1ccc(COC[C@H]2O[C@@H](n3c(NCc4ccc(Cl)c(Cl)c4)nc4c(N)ncnc43)[C@H](O)[C@@H]2O)cc1	> 10000		3860		1810		1310		1150	1710			
Cc1cc(C)c(/C=C2\C(=O)Nc3ccccc32)[nH]1 [Semaxanib]	> 10000	> 10000						> 10000			> 10000	> 10000	
CC(C)(O)CC(=O)NCCn1ccc2ncnc(Nc3ccc(Oc4cccc(C(F)(F)F)c4)c(Cl)c3)c21 [TAK-285]	> 2500		> 2500					> 2500					> 2500
Nc1nc2[nH]cc(CCc3ccc(C(=O)N[C@@H](CCC(=O)O)C(=O)O)cc3)c2c(=O)[nH]1 [Pemetrexed]	> 10000		146										> 10000
